Assay results reported in a compilation of properties of binary mixtures (doi:10.1007/s10953-023-01246-7).

Experiment: xn = mol fraction of the nth substance listed
Conditions: 100 kPa

CCOS(=O)(=O)[O-].CC[n+]1ccn(C)c1 + OCCO
viscosity [mPa·s]
Conditions	x1 = 0.1003	x1 = 0.1982	x1 = 0.2999	x1 = 0.4002	x1 = 0.5005	x1 = 0.5992	x1 = 0.6994	x1 = 0.8001	x1 = 0.8993
293.15 K	–	17.96	–	25.17	32.09	40.31	54.7	70.3	99.9
298.15 K	14.75	15.08	17.32	21.18	26.88	33.49	44.9	56.9	78.4
303.15 K	12.28	12.75	14.69	17.95	22.71	–	–	46.47	62.8
308.15 K	10.4	–	–	15.42	19.35	23.73	31.11	38.47	51.2
313.15 K	8.88	–	10.94	13.31	16.65	20.23	26.27	32.2	42.22
318.15 K	7.67	–	9.49	–	14.46	17.49	22.38	–	–
323.15 K	–	7.16	8.38	10.19	12.56	15.18	19.32	23.28	29.87
328.15 K	5.8	6.26	7.45	9.03	11.07	13.32	16.79	20.18	25.55
333.15 K	–	–	6.62	8.07	–	11.79	14.74	17.49	22.02
338.15 K	4.53	4.97	5.94	7.19	8.77	–	13.02	15.39	19.13
343.15 K	4.03	4.47	5.33	6.46	–	–	11.55	–	16.8
